{"source": "patent US9707267B2", "about": "“Beta-turn peptidomimetic cyclic compounds for treating dry eye” (Mimetogen Pharmaceuticals, Inc., priority 2008, dated 2017)", "tested_on": "cultured rat conjunctival goblet cells", "assay": "Goblet cell glycoconjugate secretion, ELLA with UEA-1 (Example 2)", "type": "cell-based", "details": "2 hours; for Glycoconjugate Secretion, Mean ± sem: mean of rats; for Glycoconjugate Secretion, Mean ± SD: mean of rats/plates", "experimental": "The culturing of conjunctival goblet cells from explant cultures was as previously described in Shatos, M. et al., “Isolation, Characterization, and Propagation of Rat Conjunctival Goblet Cells In Vitro,” IOVS 42:1455-1464 (2001), the entire content of which is incorporated herein by reference. The tissue was finely minced and individual pieces were anchored onto scored 6-well cultures dishes in 0.5 mL of complete RPMI-1640 (supplemented with 10% FBS, 2 mM glutamine and 100 μg/mL penicillin-streptomycin) and incubated at 37° C. in a humidified 5% CO2-atmosphere. Explant cultures were refed every 2 days. Within a few days, goblet cells migrated from the pieces and began to proliferate. After approximately one week, the tissue plugs were removed and the goblet cells were allowed to grow to confluence. Cells were passaged once by trypsinization of adherent cells with 0.05% trypsin-0.53 mM EDTA (pH 7.4), and plated in 8-well Laboratory Tek chamber slides (histochemistry) or in 96 well (proliferation), 24 well (secretion), or 6 well (western blots) culture plates with complete RPMI-1640 media.\nTo measure cell secretion, goblet cells were grown to confluence and then serum depleted for 2 hours prior to stimulation. Cells were incubated with compound D3 at 2, 10, and 50 μM, NGF at 0.1, 1 and 10 nM, and PMA at 0.1, 1, and 10 nM in serum-free RPMI for 2 hours. Goblet cell secretion was measured using an enzyme-linked lectin assay (ELLA). Briefly, an aliquot of the cell culture supernatant was transferred to a 96-well polystyrene microtiter plate in triplicate (Corning Life Sciences #2592, Fisher Scientific, Nepean, Ont). A dilution series of bovine submaxillary mucin (BSM) (Sigma, St. Louis, Mo.) was included on each plate as the standard (standard curve data and data showing that detection of BSM is linear between 0.003 and 0.1 μg not shown). The plates were coated by evaporation at 37° C. overnight. After, the plates were washed three times with wash buffer [PBS containing 0.3% BSA, 0.05% Tween-20] then blocked for nonspecific binding with PBS containing 3% BSA and 0.05% Tween-20 at 37° C. for 1 hour. The wells were rinsed three times in wash buffer, and then incubated in 2 μg/mL biotinylated UEA-1 diluted in wash buffer (Vector Labs, Burlingame, Calif.) at 37° C. for 1 hour. The wells were rinsed three times in wash buffer, and then incubated in 1 μg/mL HRP-conjugated neutravidin diluted in wash buffer (Pierce, Rockford, Ill.) at 37° C. for 1 hour. After the wells were rinsed three times in wash buffer, the color development was performed with TMB (Promega, Madison, Wis.) and stopped with 0.5N Sulfuric acid. The absorbance was read at 450 nm on a Benchmark Plus (Biorad). The goblet cells remaining in the culture wells were either scraped in RIPA buffer [1% TritonX-100, 20 mM Tris-HCl pH 7.5, 150 mM NaCl, 1.5 mM MgCl2, 1% Na deoxycholate, 1 mM EGTA, 1 mM EDTA, 0.1% SDS, 10% glycerol, 1 mM Na vanadate, 10 mM Na fluoride, 10 mM Na pyrophosphate, complete mini EDTA-free protease inhibitors (Roche Applied Science, Indianapolis, Ind.)] or 1M Tris-buffer (pH 7.5), collected and sonicated. The amount of protein in the cell homogenate was analyzed using the Bradford protein assay kit using a dilution series of bovine serum albumin (BSA) as the standard (BioRad, Montreal, PQ). Glycoconjugate secretion was normalized to total protein in the homogenate. Data was then expressed as fold increase above basal. […]"}
{"compound": "NCCCC[C@@H]1NC(=O)[C@H](CCC(=O)O)NC(=O)c2cc([N+](=O)[O-])ccc2OCCC(C(=O)NCC(=O)O)NC1=O", "note": "(some centres unmarked) [Compound D3]", "values": [{"measurement": "Glycoconjugate Secretion", "setting": "2 μM, Rat 2", "result": 1.25, "unit": "Fold increase above basal"}, {"measurement": "Glycoconjugate Secretion", "setting": "2 μM, Rat 2 Plate 1", "result": "2.5 μg glycoconjugate/mg total protein"}, {"measurement": "Glycoconjugate Secretion", "setting": "2 μM, Rat 3", "result": 2.14, "unit": "Fold increase above basal"}, {"measurement": "Glycoconjugate Secretion", "setting": "2 μM, Rat 3 Plate 1", "result": "10.5 μg glycoconjugate/mg total protein"}, {"measurement": "Glycoconjugate Secretion", "setting": "2 μM, Rat 4", "result": 1.09, "unit": "Fold increase above basal"}, {"measurement": "Glycoconjugate Secretion", "setting": "2 μM, Rat 4 Plate 1", "result": "9.3 μg glycoconjugate/mg total protein"}, {"measurement": "Glycoconjugate Secretion, Mean ± sem", "setting": "2 μM", "result": "1.49±0.33", "unit": "Fold increase above basal"}, {"measurement": "Glycoconjugate Secretion, Mean ± SD", "setting": "2 μM", "result": "7.4 ± 4.3 μg glycoconjugate/mg total protein"}, {"measurement": "Glycoconjugate Secretion, Mean ± sem", "setting": "2 μM, listed as MIM-D3", "result": "1.49 ± 0.33", "unit": "Fold increase above basal"}, {"measurement": "Glycoconjugate Secretion", "setting": "10 μM, Rat 2", "result": 1.25, "unit": "Fold increase above basal"}, {"measurement": "Glycoconjugate Secretion", "setting": "10 μM, Rat 2 Plate 1", "result": "2.5 μg glycoconjugate/mg total protein"}, {"measurement": "Glycoconjugate Secretion", "setting": "10 μM, Rat 3", "result": 1.04, "unit": "Fold increase above basal"}, {"measurement": "Glycoconjugate Secretion", "setting": "10 μM, Rat 3 Plate 1", "result": "5.1 μg glycoconjugate/mg total protein"}, {"measurement": "Glycoconjugate Secretion", "setting": "10 μM, Rat 4", "result": 1.35, "unit": "Fold increase above basal"}, {"measurement": "Glycoconjugate Secretion", "setting": "10 μM, Rat 4 Plate 1", "result": "11.6 μg glycoconjugate/mg total protein"}, {"measurement": "Glycoconjugate Secretion, Mean ± sem", "setting": "10 μM", "result": "1.21 ± 0.09", "unit": "Fold increase above basal"}, {"measurement": "Glycoconjugate Secretion, Mean ± SD", "setting": "10 μM", "result": "6.4 ± 4.7 μg glycoconjugate/mg total protein"}, {"measurement": "Glycoconjugate Secretion", "setting": "50 μM, Rat 1", "result": 1.38, "unit": "Fold increase above basal"}, {"measurement": "Glycoconjugate Secretion", "setting": "50 μM, Rat 1 Plate 2", "result": "5.4 μg glycoconjugate/mg total protein"}, {"measurement": "Glycoconjugate Secretion", "setting": "50 μM, Rat 2", "result": 1.65, "unit": "Fold increase above basal"}, {"measurement": "Glycoconjugate Secretion", "setting": "50 μM, Rat 2 Plate 1", "result": "3.3 μg glycoconjugate/mg total protein"}, {"measurement": "Glycoconjugate Secretion", "setting": "50 μM, Rat 3", "result": 1.16, "unit": "Fold increase above basal"}, {"measurement": "Glycoconjugate Secretion", "setting": "50 μM, Rat 3 Plate 1", "result": "5.7 μg glycoconjugate/mg total protein"}, {"measurement": "Glycoconjugate Secretion", "setting": "50 μM, Rat 4", "result": 1.11, "unit": "Fold increase above basal"}, {"measurement": "Glycoconjugate Secretion", "setting": "50 μM, Rat 4 Plate 1", "result": "9.5 μg glycoconjugate/mg total protein"}, {"measurement": "Glycoconjugate Secretion, Mean ± sem", "setting": "50 μM", "result": "1.33 ± 0.12", "unit": "Fold increase above basal"}, {"measurement": "Glycoconjugate Secretion, Mean ± SD", "setting": "50 μM", "result": "6.0 ± 2.6 μg glycoconjugate/mg total protein"}]}
{"compound": "NGF: nerve growth factor (recombinant human), positive control", "values": [{"measurement": "Glycoconjugate Secretion", "setting": "0.1 nM, Rat 1", "result": 1.49, "unit": "Fold increase above basal"}, {"measurement": "Glycoconjugate Secretion", "setting": "0.1 nM, Rat 1 Plate 1", "result": "7.6 μg glycoconjugate/mg total protein"}, {"measurement": "Glycoconjugate Secretion", "setting": "0.1 nM, Rat 2", "result": 1.20, "unit": "Fold increase above basal"}, {"measurement": "Glycoconjugate Secretion", "setting": "0.1 nM, Rat 2 Plate 1", "result": "2.4 μg glycoconjugate/mg total protein"}, {"measurement": "Glycoconjugate Secretion", "setting": "0.1 nM, Rat 3", "result": 0.94, "unit": "Fold increase above basal"}, {"measurement": "Glycoconjugate Secretion", "setting": "0.1 nM, Rat 3 Plate 1", "result": "4.6 μg glycoconjugate/mg total protein"}, {"measurement": "Glycoconjugate Secretion", "setting": "0.1 nM, Rat 4", "result": 1.24, "unit": "Fold increase above basal"}, {"measurement": "Glycoconjugate Secretion", "setting": "0.1 nM, Rat 4 Plate 1", "result": "10.6 μg glycoconjugate/mg total protein"}, {"measurement": "Glycoconjugate Secretion, Mean ± sem", "setting": "0.1 nM", "result": "1.22 ± 0.11", "unit": "Fold increase above basal"}, {"measurement": "Glycoconjugate Secretion, Mean ± SD", "setting": "0.1 nM", "result": "6.3 ± 3.6 μg glycoconjugate/mg total protein"}, {"measurement": "Glycoconjugate Secretion", "setting": "1 nM, Rat 1", "result": 2.67, "unit": "Fold increase above basal"}, {"measurement": "Glycoconjugate Secretion", "setting": "1 nM, Rat 1 Plate 1", "result": "13.6 μg glycoconjugate/mg total protein"}, {"measurement": "Glycoconjugate Secretion", "setting": "1 nM, Rat 2", "result": 0.85, "unit": "Fold increase above basal"}, {"measurement": "Glycoconjugate Secretion", "setting": "1 nM, Rat 2 Plate 1", "result": "1.7 μg glycoconjugate/mg total protein"}, {"measurement": "Glycoconjugate Secretion", "setting": "1 nM, Rat 3", "result": 1.00, "unit": "Fold increase above basal"}, {"measurement": "Glycoconjugate Secretion", "setting": "1 nM, Rat 3 Plate 1", "result": "4.9 μg glycoconjugate/mg total protein"}, {"measurement": "Glycoconjugate Secretion", "setting": "1 nM, Rat 4", "result": 1.26, "unit": "Fold increase above basal"}, {"measurement": "Glycoconjugate Secretion", "setting": "1 nM, Rat 4 Plate 1", "result": "10.8 μg glycoconjugate/mg total protein"}, {"measurement": "Glycoconjugate Secretion, Mean ± sem", "setting": "1 nM", "result": "1.44 ± 0.42", "unit": "Fold increase above basal"}, {"measurement": "Glycoconjugate Secretion, Mean ± SD", "setting": "1 nM", "result": "7.8 ± 5.4 μg glycoconjugate/mg total protein"}, {"measurement": "Glycoconjugate Secretion", "setting": "10 nM, Rat 1", "result": 1.58, "unit": "Fold increase above basal"}, {"measurement": "Glycoconjugate Secretion", "setting": "10 nM, Rat 1 Plate 1", "result": "10.4 μg glycoconjugate/mg total protein"}, {"measurement": "Glycoconjugate Secretion", "setting": "10 nM, Rat 1 Plate 2", "result": "4.4 μg glycoconjugate/mg total protein"}, {"measurement": "Glycoconjugate Secretion", "setting": "10 nM, Rat 2", "result": 1.49, "unit": "Fold increase above basal"}, {"measurement": "Glycoconjugate Secretion", "setting": "10 nM, Rat 2 Plate 1", "result": "3.6 μg glycoconjugate/mg total protein"}, {"measurement": "Glycoconjugate Secretion", "setting": "10 nM, Rat 2 Plate 2", "result": "2.7 μg glycoconjugate/mg total protein"}, {"measurement": "Glycoconjugate Secretion", "setting": "10 nM, Rat 3", "result": 1.98, "unit": "Fold increase above basal"}, {"measurement": "Glycoconjugate Secretion", "setting": "10 nM, Rat 3 Plate 1", "result": "9.7 μg glycoconjugate/mg total protein"}, {"measurement": "Glycoconjugate Secretion", "setting": "10 nM, Rat 4", "result": 1.19, "unit": "Fold increase above basal"}, {"measurement": "Glycoconjugate Secretion", "setting": "10 nM, Rat 4 Plate 1", "result": "10.2 μg glycoconjugate/mg total protein"}, {"measurement": "Glycoconjugate Secretion, Mean ± sem", "setting": "10 nM", "result": "1.55±0.18", "unit": "Fold increase above basal"}, {"measurement": "Glycoconjugate Secretion, Mean ± SD", "setting": "10 nM", "result": "6.8 ± 3.6 μg glycoconjugate/mg total protein"}]}
